# Data from patent publication US20240081329A1, “NON-PROTEIN PHENYLALANINE ANALOGUES FOR INHIBITING CYANOBACTERIA AND PLANT GROWTH” (YISSUM RESEARCH DEVELOPMENT COMPANY OF THE HEBREW …, priority 2016, published 2024).
# “Also recorded” adds a separate entry of the source.
# Experiments:
# Synechocystis PCC 6803 = assay: Growth inhibition / bleaching of cyanobacteria culture (absorbance OD=730, colonies on agar); type: cell-based; settings: for effect on growth / killing of the cyanobacteria: water samples, OD=730
# Method: FIGS. 3A-B depict the inhibition of cyanobacteria by the phenylalanine analogue of some embodiments of the invention (“F”). FIG. 3A—a graph depicting the inhibition of growth of cyanobacteria Synechocystis PCC 6803 by increasing concentrations of the phenylalanine analogue of some embodiments of the invention. FIG. 3B—raw data of the results shown in FIG. 3A as detected after 150 hours.
# (§1) FIGS. 5A-E depict the effect of m-Tyr on killing cyanobacteria Microcystis aeruginosa (FIGS. 5A-B) and Synechocystis PCC 6803 (FIGS. 5C-E) from water samples. FIG. 5A is a graph depicting the effects of m-Tyr on lake Kinneret samples containing the highly toxic cyanobacteria, Microcystis aeruginosa. The tests were performed with samples collected from lake Kinneret, that are contaminated by its native toxic cyanobacteria Microcystis aeruginosa, in the absence (0) or presence of various m-Tyr concentrations (1-20 μM) as indicated. […] The growth rate was determined by the culture absorbance at OD=730. FIG. 5B—raw data of the water samples used in the experiment shown in FIG. 5A, in the presence of the indicated concentrations of m-Tyr. FIG. 5C—a graph depicting the effects of m-Tyr on the cyanobacteria, Synechocystis PCC 6803. The tests were performed with samples of Synechocystis PCC 6803, in the absence (0) or presence of various m-Tyr concentrations (1-1000 μM) as indicated. […] The growth rate was determined by the culture absorbance at OD=730. FIG. 5D—raw data of the water samples used in the experiment shown in FIG. 5C, in the presence of the indicated concentrations of m-Tyr. FIG. 5E—The cell mortality of the cyanobacteria Synechocystis PCC 6803 was evaluated by the numbers of colonies appearing on Agar plates.
# [1] = type: physicochemical
# From the text: Although m-Tyr is an efficient allelopathic agent, its direct application for agriculture use is limited due to its instability in soil and aqueous environment [Movellan, J. et al. Synthesis and evaluation as biodegradable herbicides of halogenated analogs of L-meta-tyrosine. Environ. Sci. Pollut. Res. 21, 4861-4870 (2014)].
# [2] = tested on: Arabidopsis thaliana (var. Columbia); assay: Arabidopsis seed-germination and seedlings establishment on MS medium with Phe-analogues; type: in vivo; settings: for appearance of treated seedlings (cotyledons, leaves): seedlings on MS medium with analogue; for effect on seed-germination: seeds sown on MS medium with 0-80 μM analogue
# From the text: FIGS. 2A-D are images depicting the effects of m-Tyr and several other phenylalanine (Phe)-analogs, modified in the meta position of the R-group, on Arabidopsis thaliana (var. Columbia) seed-germination and seedlings establishment. FIG. 2A—m-Tyr; FIG. 2B—Phe-analog “CH3”; FIG. 2C—Phe-analog “F”; FIG. 2D—Phe-analog “CF3”.
# The germination of Arabidopsis thaliana plants is inhibited by the Phe-analogues of some embodiments of the invention—The efficiency of the developed compounds modified at the ‘meta’ position of the phenyl ring (FIG. 1) were analysed on Arabidopsis thaliana (var. Columbia). Following […] for 5 days at 4° C., Arabidopsis seeds were sown on Murashige-Skoog medium (MS) supplemented with increased concentrations (0-80 μM) of different Phe-analogues (in which “Y” was either “CH3”, “F” or “CF3”; see, FIG. 1). […] It should be noted that many more phe-analogues can be easily synthesized chemically based on the present teachings.
# [3] = tested on: glyphosate resistant Lolium rigidum Gaudin; assay: Combined treatment on glyphosate resistant weed, seed-germination and seedlings establishment; type: in vivo
# From the text: FIG. 10 is an image depicting the effects of Phe-analogs, on glyphosate resistant Lolium rigidum Gaudin (weed) seed-germination and seedlings establishment. ZYX1=m-Tyr; “RoundUp”=Glyphosate; “uM”=μicromolar.
# In recent years, Lolium rigidum Gaudin (annual ryegrass) resistance to a number of herbicides has started to spread worldwide.
# A. thaliana [4] = assay: Combined treatment of Phe-analogues and glyphosate, A. thaliana root growth / seed-germination; type: in vivo, Arabidopsis thaliana
# Method: FIG. 9 is an image depicting the effects of Phe-analogs, glyphosate and combination thereof on Arabidopsis thaliana (var. Columbia) seed-germination and seedlings establishment. “ZYX1”=m-Tyr (3′ OH phenylalanine); “ZYX2”=3′ fluoro phenylalanine; “RoundUp”=Glyphosate; “uM”=μicromolar.
# For example, when inhibition of weed growth (e.g., A. thaliana) is achieved using an amount of 100 μM of glyphosate (based on TAIR database) when used in the absence of the effective amount of the compound depicted by Formula A, I or II, the concentration of glyphosate required for achieving the same growth inhibition of the weed in the presence of the effective amount of the compound depicted by Formula A, I or II is 10 μM of glyphosate, i.e., a reduction of about 90% in the concentration of glyphosate (e.g., using the ZYX1 compound as shown in FIG. 9).
# Compared to herbicides (e.g., glyphosate) applied alone, the performance of herbicide mixtures can be either synergistic, or additive. Additivity is the combined action, which is equal to the total response predicted by taking into account the response of each herbicide applied alone. Synergism is the combined action of two herbicides where the observed response to their joint application is greater than the response predicted by Colby method [S. R. COLBY. Calculating Synergistic and Antagonistic Responses of Herbicide Combinations. […]
# A. thaliana [5] = settings: absence of Formula A, I or II compound; based on TAIR database; cited from earlier work
# E. coli = assay: Antibacterial assay, bacterial growth by optical density (OD=600 nm); type: cell-based, Escherichia coli; settings: 0-1000 μM
# Method: (§2) FIGS. 6A-B depict the effects of m-Tyr on the growth rates of model gram-positive and gram-negative bacteria. Bacterial growth was determined using optical density data (OD=600 nm) of E. coli and B. subtilis cultures at different time points and at different m-Tyr concentrations (0-1000 μM, the color index for m-Tyr concentration used is in the right side of each panel). FIG. 6A—E. coli; FIG. 6B—Bacillus subtilis; Note that cell growth of E. coli and Bacillus subtilis was not affected by m-Tyr, even when used at high concentrations of 1000 micromolar.
# marine bacteria = assay: Effect on marine bacteria; type: cell-based
# From the text: (§3) Thus, m-Tyr and its related Phe-analogues represent the first selective agents against cyanoblooming, a serious threat to both marine ecology and global economy.
# yeast = assay: Sensitivity of yeast cultures; type: cell-based; settings: even at concentrations as high as 15 mM; data not shown
# [6] = tested on: Arabidopsis thaliana (var. Columbia); settings: Bertin et al. 2007; cited from earlier work
# algae (chlamydomonas) = assay: Inhibition of algae; type: cell-based; settings: even in the millimolar range
# [7] = Movellan et al. 2014; cited from earlier work
# cyanobacteria = assay: Viability experiments / toxicity to cyanobacteria; type: cell-based
# From the text: as §3
# algae (Chlorella) = assay: Effect on algae; type: cell-based
# From the text: as §3
# Microcystis aeruginosa = assay: Lake Kinneret water samples containing toxic cyanobacteria, bleaching and growth (OD=730); type: cell-based
# Method: as §1, with “aeruginosa.” for “aeruginosa. The tests were performed with samples collected from lake Kinneret, that are contaminated by its native toxic cyanobacteria Microcystis aeruginosa, in the absence (0) or presence of various m-Tyr concentrations (1-20 μM) as indicated.”
# Bacillus subtilis = assay: Antibacterial assay, bacterial growth by optical density (OD=600 nm); type: cell-based; settings: 0-1000 μM
# Method: as §2
smiles,measurement,setting,value
"N[C@@H](Cc1cccc(F)c1)C(=O)O [F, 3′ fluoro phenylalanine]",low concentration at which inhibition of growth rate is evident,Synechocystis PCC 6803; culture absorbance at OD=730,6.25 µM
same,bleaching of the cyanobacteria culture,"Synechocystis PCC 6803; increasing concentrations, 0 to 50 μM, FIG. 3B after 150 hours",bleaching of the culture
same,effect on growth / killing of the cyanobacteria,Synechocystis PCC 6803,effective; also recorded: very strong effect
same,stability compared with the meta tyrosine molecule,[1],more stable
same,"appearance of treated seedlings (cotyledons, leaves)",[2],white cotyledons and yellowish leaves
same,effect on seed-germination,[2],strongly affected
O=C(O)CNCP(=O)(O)O [glyphosate],"response of glyphosate resistant Lolium, applied separately",[3]; FIG. 10,resistance
same,elevated glyphosate concentration to which the Lolium variety is resistant,[3]; local Israeli variety of Lolium,60 folds of the recommended concentration
same,concentration of glyphosate required for the same growth inhibition in combination,"A. thaliana [4]; in the presence of the effective amount of the compound (ZYX1, FIG. 9)",10 µM
same,"amount of glyphosate achieving inhibition of weed growth, used alone",A. thaliana [5],100 µM
"N[C@@H](Cc1cccc(O)c1)C(=O)O [m-Tyr, 3-hydroxyphenylalanine]",effect on growth / killing of the cyanobacteria,Synechocystis PCC 6803; listed as meta tyrosine,effective
same,effect on cell growth,E. coli,did not affect cell growth; also recorded: no (or very little) effect; also recorded: not affected
same,effect on marine bacteria,marine bacteria,no obvious effects
same,sensitivity of yeast cultures,yeast,not sensitive
same,"phytotoxic activity (inhibition of germination of angiosperms, root growth)",[6],promising phytotoxic activity
same,"appearance of treated seedlings (cotyledons, leaves)",[2],white cotyledons and yellowish leaves
same,"chloroplast morphology, microscopic analysis","[2]; seedlings treated with 10 μM, data not shown",altered chloroplast morphologies and less grana lamella
same,effect on seed-germination,[2],strongly affected
same,inhibition of algae,algae (chlamydomonas),no inhibition effects
same,reduction in the concentration of glyphosate,"A. thaliana [4]; combination of ZYX1 with glyphosate, FIG. 9",about 90%
same,stability in soil and aqueous environment,[7],instability
same,effect on / toxicity to cyanobacteria,cyanobacteria; very low μM range,highly susceptible; also recorded: strongly affecting; also recorded: toxic
same,concentration as low as which addition to the growth media induces cell death,cyanobacteria; viability experiments,0.5 µM
same,effect on algae,algae (Chlorella),no obvious effects
same,effect on growth / killing of the cyanobacteria,Microcystis aeruginosa; OD=730,very strong effect
same,effect on growth / killing of the cyanobacteria,"Microcystis aeruginosa; OD=730, listed as meta tyrosine",effective
same,bleaching of the cyanobacteria culture,Microcystis aeruginosa; increasing concentrations (printed 0 mM to 10 mM),bleaching of the culture
same,effect on cell growth,Bacillus subtilis,did not affect cell growth; also recorded: no (or very little) effect; also recorded: not affected
